US20120128705A1, “C6ORF167 PEPTIDES AND VACCINES CONTAINING THE SAME” (OncoTherapy Science, Inc., priority 2009, published 2012)
Ends that are not written are not given here.

How the values were obtained:
Type in all cases: cell-based, human
[1] = tested on: peptide-pulsed T2; test: IFN-gamma ELISA assay of CTL clones (HLA-A*0201); settings: clones by limiting dilution; target cells pulsed with peptide
Protocol: The dilutions were made to have 0.3, 1, and 3 CTLs/well in 96 round-bottomed micro titer plate (Nalge Nunc International). CTLs were cultured with 1×10^4 cells/well of 2 kinds of human B-lymphoblastoid cell lines, 30 ng/ml of anti-CD3 antibody, and 125 U/ml of IL-2 in a total of 150 micro-l/well of AIM-V Medium containing 5% AS. 50 micro-1/well of IL-2 were added to the medium 10 days later so to reach a final concentration of 125 U/ml IL-2. CTL activity was tested on the 14th day, and CTL clones were expanded using the same method as described above (Uchida N et al., Clin Cancer Res 2004 Dec. 15, 10(24): 8577-86; Suda T et al., Cancer Sci 2006 May, 97(5): 411-9; Watanabe T et al., Cancer Sci 2005 August, 96(8): 498-506).
(§1) To examine specific CTL activity, interferon (IFN)-gamma enzyme-linked immunospot (ELISPOT) assay and IFN-gamma enzyme-linked immunosorbent assay (ELISA) were performed. Specifically, peptide-pulsed T2 (1×10^4/well) was prepared as stimulator cells. Cultured cells in 48 wells were used as responder cells. IFN-gamma ELISPOT assay and IFN-gamma ELISA assay were performed under manufacture procedure.

[2] = tested on: peptide-pulsed T2; test: IFN-gamma ELISA assay of CTL lines (HLA-A*0201); settings: target cells pulsed with corresponding peptide vs without peptide pulse
Protocol: CTLs were expanded in culture using the method similar to the one described by Riddell et al. (Walter E A et al., N Engl J Med 1995 Oct. 19, 333(16): 1038-44; Riddell S R et al., Nat Med 1996 February, 2(2): 216-23). A total of 5×10^4 CTLs were suspended in 25 ml of AIM-V/5% AS medium with 2 kinds of human B-lymphoblastoid cell lines, inactivated by Mitomycin C, in the presence of 40 ng/ml of anti-CD3 monoclonal antibody (Pharmingen). One day after initiating the cultures, 120 IU/ml of IL-2 were added to the cultures. The cultures were fed with fresh AIM-V/5% AS medium containing 30 IU/ml of IL-2 on days 5, 8 and 11 (Tanaka H et al., Br J Cancer 2001 Jan. 5, 84(1): 94-9; Umano Y et al., Br J Cancer 2001 Apr. 20, 84(8): 1052-7; Uchida N et al., Clin Cancer Res 2004 Dec. 15, 10(24): 8577-86; Suda T et al., Cancer Sci 2006 May, 97(5): 411-9; Watanabe T et al., Cancer Sci 2005 August, 96(8): 498-506).
as §1

[3] = tested on: peptide-pulsed T2; test: IFN-gamma ELISPOT assay on CTLs induced with peptide (HLA-A*0201); settings: CTLs from HLA-A*0201 positive donor, 3 rounds of stimulation, day 21; vs control wells without peptide
Excerpt: Monocyte-derived dendritic cells (DCs) were used as antigen-presenting cells to induce cytotoxic T lymphocyte (CTL) responses against peptides presented on human leukocyte antigen (HLA). DCs were generated in vitro as described elsewhere (Nakahara S et al., Cancer Res 2003 Jul. 15, 63(14): 4112-8). Specifically, peripheral blood mononuclear cells (PBMCs) isolated from a normal volunteer (HLA-A*0201 positive) by Ficoll-Plaque (Pharmacia) solution were separated by adherence to a plastic tissue culture dish (Becton Dickinson) so as to enrich them as the monocyte fraction. The monocyte-enriched population was cultured in the presence of 1,000 U/ml of granulocyte-macrophage colony-stimulating factor (R&D System) and 1,000 U/ml of interleukin (IL)-4 (R&D System) in AIM-V Medium (Invitrogen) containing 2% heat-inactivated autologous serum (AS). After 7 days of culture, the cytokine-induced DCs were pulsed with 20 micro-g/ml of each of the synthesized peptides in the presence of 3 micro-g/ml of beta 2-microglobulin for 3 hrs at 37 degrees C. in AIM-V Medium. The generated cells appeared to express DC-associated molecules, such as CD80, CD83, CD86 and HLA class II, on their cell surfaces (data not shown). These peptide-pulsed DCs were then inactivated by X-irradiated (20 Gy) and mixed at a 1:20 ratio with autologous CD8+ T cells, obtained by positive selection with CD8 positive Isolation Kit (Dynal). These cultures were set up in 48-well plates (Corning); each well contained 1.5×10^4 peptide-pulsed DCs, 3×10^5 CD8+ T cells and 10 ng/ml of IL-7 (R&D System) in 0.5 ml of AIM-V/2% AS medium. Three days later, these cultures were supplemented with IL-2 (CHIRON) to a final concentration of 20 IU/ml. On days 7 and 14, the T cells were further stimulated with the autologous peptide-pulsed DCs. The DCs were prepared each time by the same way described above. CTL was tested against peptide-pulsed T2 cells after the 3rd round of peptide stimulation on day 21 (Tanaka H et al., Br J Cancer 2001 Jan. 5, 84(1): 94-9; Umano Y et al., Br J Cancer 2001 Apr. 20, 84(8): 1052-7; Uchida N et al., Clin Cancer Res 2004 Dec. 15, 10(24): 8577-86; Suda T et al., Cancer Sci 2006 May, 97(5): 411-9; Watanabe T et al., Cancer Sci 2005 August, 96(8): 498-506).
as §1

Substance: VLFLHYVKV [SEQ ID NO: 66]
- IFN-gamma production of CTL clones by ELISA [1]: Potent IFN-gamma productions
- IFN-gamma production of CTL lines by ELISA [2]: potent IFN-gamma production
- Peptide specific CTL activity: IFN-gamma production by ELISPOT [3]: potent IFN-gamma production

Substance: KLTRLLFNL [SEQ ID NO: 65]
- IFN-gamma production of CTL clones by ELISA [1]: Potent IFN-gamma productions
- IFN-gamma production of CTL lines by ELISA [2]: potent IFN-gamma production
- Peptide specific CTL activity: IFN-gamma production by ELISPOT [3]: potent IFN-gamma production

Substance: CLCIkELWVL (CLCIKELWVL; not fully specified (residue 5); printed as CLCIkELWVL; cysteine pairing not given here) [SEQ ID NO: 122]
- IFN-gamma production of CTL lines by ELISA [2]: potent IFN-gamma production
- Peptide specific CTL activity: IFN-gamma production by ELISPOT [3]: potent IFN-gamma production

Substance: WLVLeILYML (WLVLEILYML; not fully specified; printed as WLVLeILYML) [SEQ ID NO: 117]
- IFN-gamma production of CTL lines by ELISA [2]: potent IFN-gamma production
- Peptide specific CTL activity: IFN-gamma production by ELISPOT [3]: potent IFN-gamma production

Substance: FLCILAKVV [SEQ ID NO: 84]
- IFN-gamma production of CTL clones by ELISA [1]: Potent IFN-gamma productions
- IFN-gamma production of CTL lines by ELISA [2]: potent IFN-gamma production
- Peptide specific CTL activity: IFN-gamma production by ELISPOT [3]: potent IFN-gamma production

Substance: QQCVlFLHYV (QQCVLFLHYV; not fully specified; printed as QQCVlFLHYV) [SEQ ID NO: 113]
- IFN-gamma production of CTL clones by ELISA [1]: Potent IFN-gamma productions
- IFN-gamma production of CTL lines by ELISA [2]: potent IFN-gamma production
- Peptide specific CTL activity: IFN-gamma production by ELISPOT [3]: potent IFN-gamma production

Substance: FLLMyAQKNL (FLLMYAQKNL; not fully specified; printed as FLLMyAQKNL) [SEQ ID NO: 112]
- IFN-gamma production of CTL lines by ELISA [2]: potent IFN-gamma production
- Peptide specific CTL activity: IFN-gamma production by ELISPOT [3]: potent IFN-gamma production

Substance: FLLLaAVAEV (FLLLAAVAEV; not fully specified; printed as FLLLaAVAEV) [SEQ ID NO: 101]
- IFN-gamma production of CTL clones by ELISA [1]: Potent IFN-gamma productions
- IFN-gamma production of CTL lines by ELISA [2]: potent IFN-gamma production
- Peptide specific CTL activity: IFN-gamma production by ELISPOT [3]: potent IFN-gamma production

Substance: GLQNfFSLFL (GLQNFFSLFL; not fully specified; printed as GLQNfFSLFL) [SEQ ID NO: 110]
- IFN-gamma production of CTL clones by ELISA [1]: Potent IFN-gamma productions
- IFN-gamma production of CTL lines by ELISA [2]: potent IFN-gamma production
- Peptide specific CTL activity: IFN-gamma production by ELISPOT [3]: potent IFN-gamma production

Substance: ALVRFFEAV [SEQ ID NO: 76]
- IFN-gamma production of CTL clones by ELISA [1]: Potent IFN-gamma productions
- IFN-gamma production of CTL lines by ELISA [2]: potent IFN-gamma production
- Peptide specific CTL activity: IFN-gamma production by ELISPOT [3]: potent IFN-gamma production

Substance: FLTDsLELEL (FLTDSLELEL; not fully specified; printed as FLTDsLELEL) [SEQ ID NO: 111]
- IFN-gamma production of CTL clones by ELISA [1]: Potent IFN-gamma productions
- IFN-gamma production of CTL lines by ELISA [2]: potent IFN-gamma production
- Peptide specific CTL activity: IFN-gamma production by ELISPOT [3]: potent IFN-gamma production
